In experiment [1] the target is T1, Fatty-acid amide hydrolase 1 (Rattus norvegicus, UniProt P97612).
T1 sequence (P97612 whole entry): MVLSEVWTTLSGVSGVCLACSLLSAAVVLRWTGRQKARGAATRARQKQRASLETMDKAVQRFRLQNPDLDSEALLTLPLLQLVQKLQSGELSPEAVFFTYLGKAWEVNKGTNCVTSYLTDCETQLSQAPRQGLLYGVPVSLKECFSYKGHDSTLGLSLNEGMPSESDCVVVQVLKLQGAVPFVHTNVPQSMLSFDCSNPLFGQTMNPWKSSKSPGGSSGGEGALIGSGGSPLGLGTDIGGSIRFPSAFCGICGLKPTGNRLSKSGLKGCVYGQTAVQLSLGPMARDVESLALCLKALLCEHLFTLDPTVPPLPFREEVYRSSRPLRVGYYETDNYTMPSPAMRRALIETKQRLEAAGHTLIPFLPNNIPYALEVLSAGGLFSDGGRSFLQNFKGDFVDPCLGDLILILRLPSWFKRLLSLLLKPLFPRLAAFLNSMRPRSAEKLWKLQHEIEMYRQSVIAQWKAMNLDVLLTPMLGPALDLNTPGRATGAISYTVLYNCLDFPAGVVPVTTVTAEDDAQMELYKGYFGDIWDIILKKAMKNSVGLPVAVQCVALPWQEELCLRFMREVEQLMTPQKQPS
Nature of the experiment: Inhibition of rat recombinant FAAH expressed in Escherichia coli.

Experiment [2] can be described thus: Selectivity for rat recombinant FAAH over KIAA1363.
Experiment [3] is described as follows: Selectivity for rat recombinant FAAH over TGH.

Consider 80 compounds from ChEMBL document CHEMBL1145407, “Structure-activity relationships of alpha-ketooxazole inhibitors of fatty acid amide hydrolase” (J Med Chem, 2007).

pKi: −log10 of the molar value.

Consider `CC(C)(C)OC(=O)Nc1ccc(CCCCCCC(=O)c2ncc(-c3ccccn3)o2)cc1`, for which, in experiment [1], the pKi is 8.25.
Same read-out and setting: then `O=C(CCCCC(O)Cc1ccccc1)c1ncc(-c2ccccn2)o1` (stereo unspecified), with 6.70; and `CN(CCCc1ccccc1)CCC(=O)c1ncc(-c2ccccn2)o1`, with 6.70.
The same measure, in the same setting: for `O=C(CCOCCCc1ccccc1)c1ncc(-c2ccccn2)o1` the value was 7.05; for `O=C(c1ncc(-c2ccccn2)o1)C1CC1`, under 4.30.
In the case of `CC(C)(C)OC(=O)Nc1ccc(C#CCCCCC(=O)c2ncc(-c3ccccn3)o2)cc1`, the pKi in experiment [1] was 7.64.
On the same count and under the same terms, for `Nc1cccc(CCCCCCC(=O)c2ncc(-c3ccccn3)o2)c1` the value was 7.52.
On the same count and under the same terms, then `COC(=O)c1ccc(C#CCCCCC(=O)c2ncc(-c3ccccn3)o2)cc1`, with 7.60.
`O=C(CCCCCCc1ccc(F)cc1)c1ncc(-c2ccccn2)o1`: the Ratio IC50 in experiment [2] was over 5000; in experiment [3], 50. In addition, the pKi in experiment [1] was 8.49.
In the case of `O=C(CC(O)CCCCc1ccccc1)c1ncc(-c2ccccn2)o1` (stereo unspecified), the pKi in experiment [1] was 7.46.
The same measure, in the same setting: for `O=C(CCCCC#Cc1ccncc1)c1ncc(-c2ccccn2)o1` the value was 6.82.
Take `O=C(CCc1ccc(Cc2ccccc2)cc1)c1ncc(-c2ccccn2)o1`: the Ratio IC50 in experiment [2] was over 33000; in experiment [3], 300.
Turning to `O=C(CCCCS(=O)(=O)Cc1ccccc1)c1ncc(-c2ccccn2)o1`, the pKi in experiment [1] is under 5.00.
The same measure, in the same setting: then `O=C(CCCCC#Cc1cccc([N+](=O)[O-])c1)c1ncc(-c2ccccn2)o1`, with 8.32.
`O=C(CCCCCCc1cccc2ccccc12)c1ncc(-c2ccccn2)o1`: the figures for the Ratio IC50 in experiment [2] and in experiment [3] were over 10000 and 30, respectively.
As to `COC(=O)c1ccccc1CCCCCCC(=O)c1ncc(-c2ccccn2)o1`, the Ratio IC50 in experiment [2] is over 250000; in experiment [3], 25000. Moreover, the pKi in experiment [1] was 9.00.
As to `O=C(CCCCC#Cc1ccccc1F)c1ncc(-c2ccccn2)o1`, in experiment [1], the pKi was 8.10.
In the case of `CSc1ccccc1CCCCCCC(=O)c1ncc(-c2ccccn2)o1`, the Ratio IC50 is over 3300 in experiment [2] and 300 in experiment [3]. Besides, the pKi in experiment [1] was 8.48.
For `OC(CCCCCc1ccccc1)C(O)c1ncc(-c2ccccn2)o1` (stereo unspecified), in experiment [1], the pKi was 5.70.
`O=C(CCc1cccc(OCc2ccccc2)c1)c1ncc(-c2ccccn2)o1`: the figures for the Ratio IC50 in experiment [2] and in experiment [3] were over 1000 and 20, respectively.
For `O=C(CCCCCCc1ccc([N+](=O)[O-])cc1)c1ncc(-c2ccccn2)o1`, the figures for the Ratio IC50 in experiment [2] and in experiment [3] were over 200000 and 100000, respectively. Also, in experiment [1], the pKi was 8.19.
The matching figures for `Cc1cccc(CCCCCCC(=O)c2ncc(-c3ccccn3)o2)c1`: over 3300, 170 and 8.48.
The matching figures for `O=C(CCCCCCc1ccccn1)c1ncc(-c2ccccn2)o1`: over 3300, 33 and 6.92.
As for `O=C(CCCCC#Cc1cccc(C(F)(F)F)c1)c1ncc(-c2ccccn2)o1`, the pKi in experiment [1] was 8.00.
Turning to `O=C(CCCCC#Cc1cccc(Cl)c1Cl)c1ncc(-c2ccccn2)o1`, the pKi in experiment [1] was 8.30.
With `O=C(CCCCCCc1cccc(C(F)(F)F)c1)c1ncc(-c2ccccn2)o1`, the Ratio IC50 was over 5000 in experiment [2] and 10 in experiment [3]. For the same compound, in experiment [1], the pKi is 9.00.
For `CC(C)(C)OC(=O)Nc1cccc(CCCCCCC(=O)c2ncc(-c3ccccn3)o2)c1`, in experiment [1], the pKi was 8.62.
`Nc1ccc(CCCCCCC(=O)c2ncc(-c3ccccn3)o2)cc1`: the Ratio IC50 was over 25000 in experiment [2] and 750 in experiment [3]. Further, the pKi in experiment [1] is 8.52.
For `O=C(COCCCCc1ccccc1)c1ncc(-c2ccccn2)o1`, in that order: over 58, 34 and 7.22.
`O=C(CCCCOCc1ccccc1)c1ncc(-c2ccccn2)o1`: the pKi in experiment [1] was 7.26.
The same measure, in the same setting: then `CN(CCCCC(=O)c1ncc(-c2ccccn2)o1)Cc1ccccc1`, with 6.70.
Take `O=C(CCCCCCc1ccccc1C(F)(F)F)c1ncc(-c2ccccn2)o1`: the Ratio IC50 in experiment [2] is over 3300; in experiment [3], 230. In addition, the pKi in experiment [1] was 8.40.
As for `O=C(CCCCC#Cc1cccc(Cl)c1)c1ncc(-c2ccccn2)o1`, the pKi in experiment [1] is 8.15.
Turning to `CCCCCCc1cccc(CCCCCCC(=O)c2ncc(-c3ccccn3)o2)c1`, the Selectivity ratio in experiment [2] is over 1250. Further, in experiment [3], the Ratio IC50 came out at 250. Also, the pKi in experiment [1] was 7.82.
As to `COC(=O)CCCCC(=O)c1ncc(-c2ccccn2)o1`, the pKi in experiment [1] is 5.74.
On the same count and under the same terms, for `O=C(c1ncc(-c2ccccn2)o1)C1CCCC1` the value was 5.60.
As for `O=C(CCCCCOc1ccccc1)c1ncc(-c2ccccn2)o1`, in experiment [1], the pKi was 7.85.
Same read-out and setting: for `COC(=O)CCCC(=O)c1ncc(-c2ccccn2)o1` the value was 5.15.
As for `O=C(CCCCC#Cc1ccc(F)cc1)c1ncc(-c2ccccn2)o1`, in experiment [1], the pKi was 7.44.
On the same count and under the same terms, then `O=C(CCC(=O)c1ncc(-c2ccccn2)o1)NCCc1ccccc1`, with under 4.00.
As for `O=C(CCc1ccc(Sc2ccccc2)cc1)c1ncc(-c2ccccn2)o1`, the results for the Ratio IC50 in experiment [2] and in experiment [3] were over 50000 and 30, respectively.
Regarding `COC(=O)c1cccc(C#CCCCCC(=O)c2ncc(-c3ccccn3)o2)c1`, the pKi in experiment [1] is 7.52.
For the compound `O=C(CCCCC#Cc1ccc(Cl)cc1)c1ncc(-c2ccccn2)o1`, the negative-log Ki (pKi) in experiment [1] was 7.70.
Consider `O=C(CCCC(=O)c1ncc(-c2ccccn2)o1)NCc1ccccc1`, for which the pKi in experiment [1] is 4.70.
For `O=C(C[S+]([O-])CCCCc1ccccc1)c1ncc(-c2ccccn2)o1` (stereo unspecified), the pKi in experiment [1] is 6.00.
Take `O=C(CCc1ccc(OCc2ccccc2)cc1)c1nc2ncccc2o1`: the Ratio IC50 in experiment [2] stood at 7000; in experiment [3] it was 130.
`O=C(CCCCC#Cc1ccccc1C(F)(F)F)c1ncc(-c2ccccn2)o1`: the pKi in experiment [1] is 7.80.
As for `CN(CCCCCC(=O)c1ncc(-c2ccccn2)o1)c1ccccc1`, the pKi in experiment [1] was 7.40.
For the compound `O=C(CCCCC(=O)c1ncc(-c2ccccn2)o1)Nc1ccccc1`, in experiment [1], the pKi is 5.51.
On the same count and under the same terms, then `O=C(CCCCSCc1ccccc1)c1ncc(-c2ccccn2)o1`, with 7.60; and `O=C(CSCCCCc1ccccc1)c1ncc(-c2ccccn2)o1`, with 8.40; and `O=C(CS(=O)(=O)CCCCc1ccccc1)c1ncc(-c2ccccn2)o1`, with 4.70.
Same read-out and setting: for `O=C(O)c1cccc(CCCCCCC(=O)c2ncc(-c3ccccn3)o2)c1` the value was under 6.22; for `O=C(CCCCC#Cc1cccnc1)c1ncc(-c2ccccn2)o1`, 6.52; for `O=C(CCCCCCc1ccccc1C(=O)O)c1ncc(-c2ccccn2)o1`, under 6.22.
For the compound `O=C(CCCC[S+]([O-])Cc1ccccc1)c1ncc(-c2ccccn2)o1` (stereo unspecified), in experiment [1], the pKi was 5.60.
Same read-out and setting: then `O=C(CCCCC#Cc1ccccc1Cl)c1ncc(-c2ccccn2)o1`, with 7.89; and `O=C(CCCCCS(=O)(=O)c1ccccc1)c1ncc(-c2ccccn2)o1`, with 5.22.
Take `O=C(CCCCCCc1cccc(Cl)c1)c1ncc(-c2ccccn2)o1`: the values for the Ratio IC50 in experiment [2] and in experiment [3] were over 50000 and 250, respectively.
As to `O=C(CCCCC#Cc1cccc(F)c1)c1ncc(-c2ccccn2)o1`, the pKi in experiment [1] was 8.49.
Same read-out and setting: for `O=C(CCC(O)CCCc1ccccc1)c1ncc(-c2ccccn2)o1` (stereo unspecified) the value was 6.30.
Turning to `O=C(CCc1ccc(OCc2ccccc2)cc1)c1ncc(-c2ccccn2)o1`, the Ratio IC50 in experiment [2] was over 100000; in experiment [3] it was 8000.
Take `O=C(CCCCCC(O)c1ccccc1)c1ncc(-c2ccccn2)o1` (stereo unspecified): the pKi in experiment [1] is 7.46.
The same measure, in the same setting: for `CC(C)(C)OC(=O)Nc1cccc(C#CCCCCC(=O)c2ncc(-c3ccccn3)o2)c1` the value was 7.92; for `O=C(CCCCC#Cc1ccc([N+](=O)[O-])cc1)c1ncc(-c2ccccn2)o1`, 7.51.
Regarding `O=C(CCCC(O)CCc1ccccc1)c1ncc(-c2ccccn2)o1` (stereo unspecified), in experiment [1], the pKi was 5.82.
In the case of `O=C(CCCCC#Cc1ccccc1)c1ncc(-c2ccccn2)o1`, in experiment [1], the negative-log Ki (pKi) is 7.60.
The same measure, in the same setting: for `COC(=O)CCC(=O)c1ncc(-c2ccccn2)o1` the value was under 4.00; for `O=C(CCl)c1ncc(-c2ccccn2)o1`, 6.10; for `O=C(CCCCc1ccccc1)CC(=O)c1ncc(-c2ccccn2)o1`, under 5.70.
Still for that read-out and setting: for `O=C(CCCCC#Cc1ccc(C(F)(F)F)cc1)c1ncc(-c2ccccn2)o1` the value was 7.12.
On the same count and under the same terms, for `CN(CCCCc1ccccc1)CC(O)c1ncc(-c2ccccn2)o1` (stereo unspecified) the value was under 4.00.
In the case of `O=C(CCCCC[S+]([O-])c1ccccc1)c1ncc(-c2ccccn2)o1` (stereo unspecified), in experiment [1], the pKi is 6.00.
The same measure, in the same setting: then `O=C(O)c1ccc(CCCCCCC(=O)c2ncc(-c3ccccn3)o2)cc1`, with under 6.22; and `O=C(CCCCC#Cc1ccccn1)c1ncc(-c2ccccn2)o1`, with 6.55; and `CN(CCCC(=O)c1ncc(-c2ccccn2)o1)CCc1ccccc1`, with 5.46.
Consider `O=C(CCCOCCc1ccccc1)c1ncc(-c2ccccn2)o1`, for which the pKi in experiment [1] was 7.20.
For `O=C(CCc1ccc(Nc2ccccc2)cc1)c1ncc(-c2ccccn2)o1`, the Ratio IC50 in experiment [2] is over 20000; in experiment [3], 120.
As to `O=C(CCCCC#Cc1ccccc1[N+](=O)[O-])c1ncc(-c2ccccn2)o1`, in experiment [1], the pKi was 7.77.
Take `O=C(CCc1ccc(COc2ccccc2)cc1)c1ncc(-c2ccccn2)o1`: the Ratio IC50 in experiment [2] is over 50000; in experiment [3] it was 1000.

As a reminder, the pKi is the negative decadic logarithm of the Ki, by convention in mol/L.
